Results as given in US20240067631A1, “PYRAZOLE DERIVATIVES USEFUL AS NAMPT MODULATORS” (Cytokinetics, Inc., priority 2020, published 2024).

Biological target: human NAMPT (Homo sapiens (Human), UniProt P43490)
Assay: Human recombinant enzyme assay (NMN fluorescence biochemical assay)
Conditions: 6 nM human NAMPT, 60 min; for AC1.4 Human: concentration of compound that generates 40% higher activity over basal; for EC50: concentration that gives half-maximal activation
In short: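 Recombinant human NAMPT (6 nM) with 2.5 mM ATP, […] PRPP and […] nicotinamide in HEPES pH 7.2 with DTT, CHAPS, NaCl, MgCl2; 60 min at ambient temperature. NMN derivatised with acetophenone/KOH/formic acid, fluorescence read at 355/460 nm. AC1.4 (40% above basal) and EC50 reported.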

human NAMPT, sequence (P43490 whole entry): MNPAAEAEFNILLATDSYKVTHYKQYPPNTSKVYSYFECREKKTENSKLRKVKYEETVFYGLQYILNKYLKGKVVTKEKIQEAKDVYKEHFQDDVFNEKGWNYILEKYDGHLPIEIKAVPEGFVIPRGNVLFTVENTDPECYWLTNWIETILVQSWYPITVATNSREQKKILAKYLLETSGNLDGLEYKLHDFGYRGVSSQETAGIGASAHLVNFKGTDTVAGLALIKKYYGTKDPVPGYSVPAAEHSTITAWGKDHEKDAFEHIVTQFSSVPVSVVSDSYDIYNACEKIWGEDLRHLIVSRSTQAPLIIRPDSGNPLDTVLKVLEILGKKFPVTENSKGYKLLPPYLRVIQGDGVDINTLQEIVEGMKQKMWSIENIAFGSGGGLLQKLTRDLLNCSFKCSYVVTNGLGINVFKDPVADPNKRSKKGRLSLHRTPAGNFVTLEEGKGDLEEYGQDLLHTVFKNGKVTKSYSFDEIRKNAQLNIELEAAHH

Structure (SMILES) | AC1.4 Human | EC50
Cc1nc(C(=O)NC(c2ccc(F)c(F)c2)c2nccn2C)nc(NCCc2cn[nH]c2)c1C (stereo not shown) [Compound 134, 4-((2-(1H-pyrazol-4-yl)ethyl)amino)-N-((3,4-difluorophenyl)(1-methyl-1H-imidazol-2-yl)methyl)-5,6-dimethylpyrimidine-2-carboxamide] | 3.578 µM | 26.2 µM
Cc1nc(C(=O)N2CC3(CCC3)C2)nc(NCCc2cn[nH]c2)c1C [Compound 123, (4-((2-(1H-pyrazol-4-yl)ethyl)amino)-5,6-dimethylpyrimidin-2-yl)(2-azaspiro[3.3]heptan-2-yl)methanone] | 2.581 µM | 26.4 µM
Cc1nc(C(=O)N2CC(F)(F)C2)nc(NCCc2cn[nH]c2)c1C [Compound 91, (4-((2-(1H-pyrazol-4-yl)ethyl)amino)-5,6-dimethylpyrimidin-2-yl)(3,3-difluoroazetidin-1-yl)methanone] | 0.9345 µM | 7.76 µM
Cc1nc(C(=O)N2CC(O)(c3ccccc3F)C2)nc(NCCc2cn[nH]c2)c1C [Compound 77, (4-((2-(1H-pyrazol-4-yl)ethyl)amino)-5,6-dimethylpyrimidin-2-yl)(3-(2-fluorophenyl)-3-hydroxyazetidin-1-yl)methanone] | 0.8835 µM | 13.7 µM
Cc1nc(C(=O)NCC2(c3cccc(F)c3)COC2)nc(NCCc2cn[nH]c2)c1C [Compound 74, 4-((2-(1H-pyrazol-4-yl)ethyl)amino)-N-((3-(3-fluorophenyl)oxetan-3-yl)methyl)-5,6-dimethylpyrimidine-2-carboxamide] | 0.715 µM | 8.01 µM
Cc1nc(C(=O)N2CCC[C@@H]2c2ccc(F)cc2)nc(NCCc2cn[nH]c2)c1C [Compound 86, (R)-(4-((2-(1H-pyrazol-4-yl)ethyl)amino)-5,6-dimethylpyrimidin-2-yl)(2-(4-flurophenyl)pyrrolidin-1-yl)methanone] | 1.1115 µM | 8.04 µM
COC[C@@H](NC(=O)c1nc(C)c(C)c(NCCc2cn[nH]c2)n1)c1cccc(F)c1 [Compound 82, (S)-4-((2-(1H-pyrazol-4-yl)ethyl)amino)-N-(1-(3-fluorophenyl)-2-methoxyethyl)-5,6-dimethylpyrimidine-2-carboxamide] | 0.966 µM | 3.99 µM
Cc1nc(C(=O)NCc2cccc(F)n2)nc(NCCc2cn[nH]c2)c1C [Compound 55, 4-((2-(1H-pyrazol-4-yl)ethyl)amino)-N-((6-fluoropyridin-2-yl)methyl)-5,6-dimethylpyrimidine-2-carboxamide] | 0.375 µM | 4.68 µM
Cc1nc(C(=O)NCc2ccccc2)nc(NCCc2cn[nH]c2)c1C [Compound 31, 4-((2-(1H-pyrazol-4-yl)ethyl)amino)-N-benzyl-5,6-dimethylpyrimidine-2-carboxamide] | 0.192 µM | 1.61 µM
Cc1nc(C(=O)N2CCC(C#N)(c3ccccc3)CC2)nc(NCCc2cn[nH]c2)c1C [Compound 96, 1-(4-((2-(1H-pyrazol-4-yl)ethyl)amino)-5,6-dimethylpyrimidine-2-carbonyl)-4-phenylpiperidine-4-carbonitrile] | 1.3075 µM | 8.51 µM
Cc1nc(C(=O)N[C@H](C)c2ncccc2F)nc(NCCc2cn[nH]c2)c1C [Compound 56, (R)-4-((2-(1H-pyrazol-4-yl)ethyl)amino)-N-(1-(3-fluoropyridin-2-yl)ethyl)-5,6-dimethylpyrimidine-2-carboxamide] | 0.439 µM | 1.37 µM
Cc1nc(C(=O)N[C@H](C)c2ccco2)nc(NCCc2cn[nH]c2)c1C [Compound 75, (R)-4-((2-(1H-pyrazol-4-yl)ethyl)amino)-N-(1-(furan-2-yl)ethyl)-5,6-dimethylpyrimidine-2-carboxamide] | 0.7725 µM | 2.62 µM
Cc1nc(C(=O)NC(C)(C)c2cccnc2)nc(NCCc2cn[nH]c2)c1C [Compound 121, 4-((2-(1H-pyrazol-4-yl)ethyl)amino)-5,6-dimethyl-N-(2-(pyridin-3-yl)propan-2-yl)pyrimidine-2-carboxamide] | 2.5075 µM | 22.1 µM
Cc1cccc(F)c1NC(=O)c1nc(C)c(C)c(NCCc2cn[nH]c2)n1 [Compound 139, 4-((2-(1H-pyrazol-4-yl)ethyl)amino)-N-(2-fluoro-6-methylphenyl)-5,6-dimethylpyrimidine-2-carboxamide] | 3.809 µM | 28.5 µM
Cc1nc(C(=O)Nc2ccccc2)nc(NCCc2cn[nH]c2)c1C [Compound 140, 4-((2-(1H-pyrazol-4-yl)ethyl)amino)-5,6-dimethyl-N-phenylpyrimidine-2-carboxamide] | 4.0885 µM | 18.4 µM
Cc1nc(C(=O)N(C)[C@@H](C)c2ccccc2Cl)nc(NCCc2cn[nH]c2)c1C [Compound 29, (S)-4-((2-(1H-pyrazol-4-yl)ethyl)amino)-N-(1-(2-chlorophenyl)ethyl)-N,5,6-trimethylpyrimidine-2-carboxamide] | 0.1725 µM | 1.87 µM
Cc1nc(C(=O)N2CC(OC(F)(F)F)C2)nc(NCCc2cn[nH]c2)c1C [Compound 81, (4-((2-(1H-pyrazol-4-yl)ethyl)amino)-5,6-dimethylpyrimidin-2-yl)(3-(trifluoromethoxy)azetidin-1-yl)methanone] | 0.891 µM | 5.98 µM
Cc1nc(C(=O)N2CC(O)(C(F)(F)F)C2)nc(NCCc2cn[nH]c2)c1C [Compound 48, (4-((2-(1H-pyrazol-4-yl)ethyl)amino)-5,6-dimethylpyrimidin-2-yl)(3-hydroxy-3-(trifluoromethyl)azetidin-1-yl)methanone] | 0.2925 µM | 6.83 µM
Cc1nc(C(=O)N2CC(O)(C3CC3)C2)nc(NCCc2cn[nH]c2)c1C [Compound 97, (4-((2-(1H-pyrazol-4 yl)ethyl)amino)-5,6-dimethylpyrimidin-2-yl)(3-cyclopropyl-3-hydroxyazetidin-1-yl)methanone] | 6.337 µM | 22.3 µM
COc1cccnc1[C@@H](C)NC(=O)c1nc(C)c(C)c(NCCc2cn[nH]c2)n1 [Compound 124, (R)-4-((2-(1H-pyrazol-4-yl)ethyl)amino)-N-(1-(3-methoxypyridin-2-yl)ethyl)-5,6-dimethylpyrimidine-2-carboxamide] | 2.6905 µM | 12 µM
CCCN(CCc1cn[nH]c1)c1nc(C(N)=O)nc(C)c1C [Compound 106, 4-((2-(1H-pyrazol-4-yl)ethyl)(propyl)amino)-5,6-dimethylpyrimidine-2-carboxamide] | 1.7115 µM | 32.7 µM
Cc1nc(C(=O)N2CCOCC2c2cccc(Cl)c2)nc(NCCc2cn[nH]c2)c1C (stereo not shown) [Compound 12, (4-((2-(1H-pyrazol-4-yl)ethyl)amino)-5,6-dimethylpyrimidin-2-yl)(3-(3-chlorophenyl)morpholino)methanone] | 0.048 µM | 0.514 µM
Cc1cccc([C@H]2CCCN2C(=O)c2nc(C)c(C)c(NCCc3cn[nH]c3)n2)n1 [Compound 131, (R)-(4-((2-(1H-pyrazol-4-yl)ethyl)amino)-5,6-dimethylpyrimidin-2-yl)(2-(6-methylpyridin-2-yl)pyrrolidin-1-yl)methanone] | 3.487 µM | 10.8 µM
Cc1nc(C(=O)NCC(O)(c2ccccc2)C(F)(F)F)nc(NCCc2cn[nH]c2)c1C (stereo not shown) [Compound 122, 4-((2-(1H-pyrazol-4-yl)ethyl)amino)-5,6-dimethyl-N-(3,3,3-trifluoro-2-hydroxy-2-phenylpropyl)pyrimidine-2-carboxamide] | 2.574 µM | 16.7 µM
Cc1nc(C(=O)NCc2ccccn2)nc(NCCc2cn[nH]c2)c1C [Compound 93, 4-((2-(1H-pyrazol-4-yl)ethyl)amino)-5,6-dimethyl-N-(pyridin-2-ylmethyl)pyrimidine-2-carboxamide] | 1.244 µM | 14.9 µM
Cc1nc(C(=O)N[C@H](C)c2cc3ccccc3o2)nc(NCCc2cn[nH]c2)c1C [Compound 112, (R)-4-((2-(1H-pyrazol-4-yl)ethyl)amino)-N-(1-(benzofuran-2-yl)ethyl)-5,6-dimethylpyrimidine-2-carboxamide] | 2.084 µM | 2.97 µM
Cc1nc(C(=O)N2CC(c3ccccc3)C2)nc(NCCc2cn[nH]c2)c1C [Compound 76, (4-((2-(1H-pyrazol-4-yl)ethyl)amino)-5,6-dimethylpyrimidin-2-yl)(3-phenylazetidin-1-yl)methanone] | 0.773 µM | 6.83 µM
Cc1nc(C(=O)N2CCC[C@@H]2c2cccc(F)c2)nc(NCCc2cn[nH]c2)c1Cl [Compound 148, (R)-(4-((2-(1H-pyrazol-4-yl)ethyl)amino)-5-chloro-6-methylpyrimidin-2-yl)(2-(3-fluorophenyl)pyrrolidin-1-yl)methanone] | >31 µM | –
